Test results published in US7166738B2, “Non-nucleoside reverse transcriptase inhibitors” (Roche Palo Alto LLC, priority 2004, dated 2007).

Molecule `CCc1ccc(CC(=O)Nc2ccc(S(N)(=O)=O)cc2Cl)cc1Oc1cc(C#N)cc(C#N)c1Cl` [Compound I-54, 2-[3-(2-Chloro-3,5-dicyano-phenoxy)-4-ethyl-phenyl]-N-(2-chloro-4-sulfamoyl-phenyl)-acetamide] has a melting point of 180.3 to 183.1 °C. For `Cc1cc(C#N)cc(C)c1Oc1cc(CC(=O)Nc2ccc(S(N)(=O)=O)cc2)ccc1Cl` [Compound I-55, 2-[4-Chloro-3-(4-cyano-2,6-dimethyl-phenoxy)-phenyl]-N-(4-sulfamoyl-phenyl)-acetamide], the melting point was 227.3 to 231.4 °C. In the case of `Cc1cc(S(N)(=O)=O)ccc1NC(=O)Cc1ccc(Cl)c(Oc2c(C)cc(C#N)cc2C)c1` [Compound I-56, 2-[4-Chloro-3-(4-cyano-2,6-dimethyl-phenoxy)-phenyl]-N-(2-methyl-4-sulfamoyl-phenyl)-acetamide], the melting point is reported as 232.1 to 234.6 °C. Work on `COc1ccc(CC(=O)Nc2ccc(S(N)(=O)=O)cc2)cc1Oc1cc(Cl)cc(C#N)c1` [Compound I-57, 2-[3-(3-Chloro-5-cyano-phenoxy)-4-methoxy-phenyl]-N-(4-sulfamoyl-phenyl)-acetamide] yielded a melting point of 218.3 to 221.4 °C. With `CCc1ccc(CC(=O)Nc2ccccc2Cl)cc1Oc1cc(C#N)cc(F)c1Cl` [Compound I-59, 2-[3-(2-Chloro-5-cyano-3-fluoro-phenoxy)-4-ethyl-phenyl]-N-(2-chloro-phenyl)-acetamide] the melting point was 142.1 to 142.8 °C. Work on `CCc1ccc(CC(=O)Nc2ccccc2Cl)cc1Oc1cc(C#N)cc(C#N)c1Cl` [Compound I-60, 2-[3-(2-Chloro-3,5-dicyano-phenoxy)-4-ethyl-phenyl]-N-(2-chloro-phenyl)-acetamide] yielded a melting point of 110 to 111.5 °C. `COc1ccc(CC(=O)Nc2ccccc2Cl)cc1Oc1cc(Cl)cc(C#N)c1` [Compound I-61, 2-[3-(3-Chloro-5-cyano-phenoxy)-4-methoxy-phenyl]-N-(2-chloro-phenyl)-acetamide] showed a melting point of 175.7 to 178.3 °C. Work on `COc1ccc(CC(=O)Nc2ccccc2Cl)cc1Oc1cc(C#N)ccc1Cl` [Compound I-62, 2-[3-(2-Chloro-5-cyano-phenoxy)-4-methoxy-phenyl]-N-(2-chloro-phenyl)-acetamide] yielded a melting point of 194 to 197.8 °C. Molecule `COc1ccc(CC(=O)Nc2ccc(S(N)(=O)=O)cc2Cl)cc1Oc1cc(Cl)cc(C#N)c1` [Compound I-64, 2-[3-(3-Chloro-5-cyano-phenoxy)-4-methoxy-phenyl]-N-(2-chloro-4-sulfamoyl-phenyl)-acetamide] has a melting point of 186.3 to 189.7 °C. `COc1ccc(CC(=O)Nc2ccc(S(N)(=O)=O)cc2)cc1Oc1cc(C#N)ccc1Cl` [Compound I-65, 2-[3-(2-Chloro-5-cyano-phenoxy)-4-methoxy-phenyl]-N-(4-sulfamoyl-phenyl)-acetamide] gave a melting point of 252.3 to 254.3 °C. With `COc1ccc(CC(=O)Nc2ccc(S(N)(=O)=O)cc2C)cc1Oc1cc(C#N)ccc1Cl` [Compound I-66, 2-[3-(2-Chloro-5-cyano-phenoxy)-4-methoxy-phenyl]-N-(2-methyl-4-sulfamoyl-phenyl)-acetamide] the melting point was 232.9 to 236.9 °C. Work on `COc1ccc(CC(=O)Nc2ccc(S(N)(=O)=O)cc2Cl)cc1Oc1cc(C#N)ccc1Cl` [Compound I-67, 2-[3-(2-Chloro-5-cyano-phenoxy)-4-methoxy-phenyl]-N-(2-chloro-4-sulfamoyl-phenyl)-acetamide] yielded a melting point of 214.6 to 216.4 °C. In the case of `Cc1cc(C#N)cc(C)c1Oc1cc(CC(=O)Nc2ccccc2Cl)ccc1Cl` [Compound I-68, 2-[4-Chloro-3-(4-cyano-2,6-dimethyl-phenoxy)-phenyl]-N-(2-chloro-phenyl)-acetamide], the melting point is reported as 183.9 to 185.1 °C. For `COc1ccc(CC(=O)Nc2ccc(S(N)(=O)=O)cc2C)cc1Oc1cc(Cl)cc(C#N)c1` [Compound I-73, 2-[3-(3-Chloro-5-cyano-phenoxy)-4-methoxy-phenyl]-N-(2-methyl-4-sulfamoyl-phenyl)-acetamide], the melting point was 222.3 to 224.3 °C. `Cc1cc(S(N)(=O)=O)ccc1NC(=O)Cc1ccc(C)c(Oc2cc(Cl)cc(C#N)c2)c1F` [Compound I-74, 2-[3-(3-Chloro-5-cyano-phenoxy)-2-fluoro-4-methyl-phenyl]-N-(2-methyl-4-sulfamoyl-phenyl)-acetamide] gave a melting point of 230 to 232.2 °C. With `Cc1cc(S(N)(=O)=O)ccc1NC(=O)Cc1ccc(C)c(Oc2cc(C#N)cc(C(F)F)c2)c1F` [Compound I-85, 2-[3-(3-Cyano-5-difluoromethyl-phenoxy)-2-fluoro-4-methyl-phenyl]-N-(2-methyl-4-sulfamoyl-phenyl)-acetamide] the melting point was 218 to 220.4 °C. `Cc1ccc(CC(=O)Nc2ccccc2Cl)c(F)c1Oc1cc(C#N)cc(C(F)F)c1` [Compound I-86, N-(2-Chloro-phenyl)-2-[3-(3-cyano-5-difluoromethyl-phenoxy)-2-fluoro-4-methyl-phenyl]-acetamide] showed a melting point of 163.3 to 164.4 °C. Work on `N#Cc1cc(Oc2cc(CC(=O)Nc3ccc(S(N)(=O)=O)cc3)ccc2Cl)cc(C(F)(F)F)c1` [Compound I-88, 2-[4-Chloro-3-(3-cyano-5-trifluoromethyl-phenoxy)-phenyl]-N-(4-sulfamoyl-phenyl)-acetamide] yielded a melting point of 219 to 221.4 °C. `Cc1cc(S(N)(=O)=O)ccc1NC(=O)Cc1ccc(Cl)c(Oc2cc(C#N)cc(C(F)(F)F)c2)c1` [Compound I-89, 2-[4-Chloro-3-(3-cyano-5-trifluoromethyl-phenoxy)-phenyl]-N-(2-methyl-4-sulfamoyl-phenyl)-acetamide] showed a melting point of 211.6 to 214.6 °C. `N#Cc1cc(Oc2cc(CC(=O)Nc3ccc(S(N)(=O)=O)cc3Cl)ccc2Cl)cc(C(F)(F)F)c1` [Compound I-90, 2-[4-Chloro-3-(3-cyano-5-trifluoromethyl-phenoxy)-phenyl]-N-(2-chloro-4-sulfamoyl-phenyl)-acetamide] showed a melting point of 198 to 202 °C. For `CCc1ccc(CC(=O)Nc2ccc(S(N)(=O)=O)cc2)cc1Oc1cc(C#N)cc(C(F)F)c1` [Compound I-91, 2-[3-(3-Cyano-5-difluoromethyl-phenoxy)-4-ethyl-phenyl]-N-(4-sulfamoyl-phenyl)-acetamide], the melting point was 188 to 198 °C. Molecule `COc1ccc(CC(=O)Nc2ccc(S(N)(=O)=O)cc2)cc1Oc1cc(C#N)cc(C(F)F)c1` [Compound I-92, 2-[3-(3-Cyano-5-difluoromethyl-phenoxy)-4-methoxy-phenyl]-N-(4-sulfamoyl-phenyl)-acetamide] has a melting point of 213.9 to 214.2 °C. With `COc1ccc(CC(=O)Nc2ccc(S(N)(=O)=O)cc2C)cc1Oc1cc(C#N)cc(C(F)F)c1` [Compound I-93, 2-[3-(3-Cyano-5-difluoromethyl-phenoxy)-4-methoxy-phenyl]-N-(2-methyl-4-sulfamoyl-phenyl)-acetamide] the melting point was 175 to 177.2 °C. For `COc1ccc(CC(=O)Nc2ccc(S(N)(=O)=O)cc2Cl)cc1Oc1cc(C#N)cc(C(F)F)c1` [Compound I-94, N-(2-Chloro-4-sulfamoyl-phenyl)-2-[3-(3-cyano-5-difluoromethyl-phenoxy)-4-methoxy-phenyl]-acetamide], the melting point was 185 to 187.9 °C. Molecule `CC(F)(F)c1cc(C#N)cc(Oc2c(Cl)ccc(CC(=O)Nc3ccc(S(N)(=O)=O)cc3)c2F)c1` [Compound I-95, 2-{4-Chloro-3-[3-cyano-5-(1,1-difluoro-ethyl)-phenoxy]-2-fluoro-phenyl}-N-(4-sulfamoyl-phenyl)-acetamide] has a melting point of 207 to 209.8 °C. Work on `Cc1cc(S(N)(=O)=O)ccc1NC(=O)Cc1ccc(Cl)c(Oc2cc(C#N)cc(C(C)(F)F)c2)c1F` [Compound I-96, 2-{4-Chloro-3-[3-cyano-5-(1,1-difluoro-ethyl)-phenoxy]-2-fluoro-phenyl}-N-(2-methyl-4-sulfamoyl-phenyl)-acetamide] yielded a melting point of 198.5 to 201 °C. With `CC(F)(F)c1cc(C#N)cc(Oc2c(Cl)ccc(CC(=O)Nc3ccc(S(N)(=O)=O)cc3Cl)c2F)c1` [Compound I-97, 2-{4-Chloro-3-[3-cyano-5-(1,1-difluoro-ethyl)-phenoxy]-2-fluoro-phenyl}-N-(2-chloro-4-sulfamoyl-phenyl)-acetamide] the melting point was 192 to 197.6 °C. Work on `CCC(=O)N(C)S(=O)(=O)c1ccc(NC(=O)Cc2ccc(Cl)c(Oc3cc(Cl)cc(C#N)c3)c2F)c(C)c1` [Compound I-99, 2-[4-Chloro-3-(3-chloro-5-cyano-phenoxy)-2-fluoro-phenyl]-N-[2-methyl-4-(methyl-propionyl-sulfamoyl)-phenyl]-acetamide] yielded a melting point of 212 to 216.9 °C. Molecule `N#Cc1cc(Cl)cc(Oc2c(Cl)ccc(CC(=O)Nc3ccc(S(N)(=O)=O)cc3Cl)c2F)c1` [Compound I-100, 2-[4-Chloro-3-(3-chloro-5-cyano-phenoxy)-2-fluoro-phenyl]-N-(2-chloro-4-sulfamoyl-phenyl)-acetamide] has a melting point of 234.4 to 234.9 °C. `COc1cc(CC(=O)Nc2ccc(S(N)(=O)=O)cc2)cc(Oc2cc(C#N)ccc2Cl)c1` [Compound I-102, 2-[3-(2-Chloro-5-cyano-phenoxy)-5-methoxy-phenyl]-N-(4-sulfamoyl-phenyl)-acetamide] gave a melting point of 180.5 to 181.3 °C. With `COc1cc(CC(=O)Nc2ccc(S(N)(=O)=O)cc2C)cc(Oc2cc(C#N)ccc2Cl)c1` [Compound I-103, 2-[3-(2-Chloro-5-cyano-phenoxy)-5-methoxy-phenyl]-N-(2-methyl-4-sulfamoyl-phenyl)-acetamide] the melting point was 179.8 to 184 °C. Work on `CCc1cc(CC(=O)Nc2ccc(S(N)(=O)=O)cc2C)cc(Oc2cc(C#N)ccc2Cl)c1` [Compound I-106, 2-[3-(2-Chloro-5-cyano-phenoxy)-5-ethyl-phenyl]-N-(2-methyl-4-sulfamoyl-phenyl)-acetamide] yielded a melting point of 231.6 to 233.1 °C. Work on `CCc1cc(CC(=O)Nc2ccc(S(N)(=O)=O)cc2Cl)cc(Oc2cc(C#N)ccc2Cl)c1` [Compound I-107, 2-[3-(2-Chloro-5-cyano-phenoxy)-5-ethyl-phenyl]-N-(2-chloro-4-sulfamoyl-phenyl)-acetamide] yielded a melting point of 204 to 207 °C. `CNS(=O)(=O)c1ccc(NC(=O)Cc2ccc(Cl)c(Oc3cc(Cl)cc(C#N)c3)c2F)c(C)c1` [Compound I-108, 2-[4-Chloro-3-(3-chloro-5-cyano-phenoxy)-2-fluoro-phenyl]-N-(2-methyl-4-methylsulfamoyl-phenyl)-acetamide] gave a melting point of 204.4 to 207.3 °C.
